According to patent publication US20100303932A1 (priority 2009, published 2010):
Several values for one entry are separate records, joined by “and”; a condition that tells them apart may be missing. Equal entries are not always repeated.

Tests used:
[1] = tested on: mice injected with BoNT/A; details: mouse, in vivo
motor nerve terminals = tested on: motor nerve terminals; design: species or system mouse
Neuro 2a cells [2] = type: cell-based, mouse
[3] = tested on: mice injected with BoNT/A; details: mouse, in vivo; remark: listed apart in the source
[4] = tested on: mice injected with BoNT/A
TRPV1 = tested on: TRPV1; design: species or system mouse
[5] = tested on: mice injected with BoNT/A; details: mouse, in vivo; remark: listed apart in the source
[6] = mouse, in vivo
[7] = tested on: mice injected with BoNT/A; details: mouse, in vivo; remark: listed apart in the source
Neuro 2a cells [8] = type: cell-based, mouse; remark: listed apart in the source
[9] = tested on: EDL nerve muscle preparations; design: species or system mouse
[10] = tested on: EDL nerve muscle preparations

COc1cc(CNC(=O)CCCC/C=C/C(C)C)ccc1O [capsaicin, trans 8-methyl-N-vanillyl-6-noneamide]
Muscle Strength (%) ± SEM [1]: 100% | motor strength [1]: retained normal motor strength | exocytosis-induced uptake of BoNT/A into motor nerve terminals (motor nerve terminals): prevented | reduction of BoNT/A uptake into motor nerve terminals by capsaicin (motor nerve terminals): prevented by removal of extracellular Ca^2+ | BoNT/A uptake into Neuro 2a cells (Neuro 2a cells [2]): reduced | reduction of BoNT/A uptake into Neuro 2a cells by capsaicin (Neuro 2a cells [2]): prevented by removal of extracellular Ca^2+ | Toe spread reflex (TSR) [3]: remained completely normal | Toe spread reflex (TSR) at times later than 24 hours after BoNT/A [3]: continued unaltered | Toe spread reflex (TSR) within 24 hours [3]: remained normal | CMAP amplitude compared to BoNT/A alone treated mice ([4]; mouse, in vivo): significantly greater | fold recovery of CMAP from week 1 to week 7 ([4]; mouse, in vivo): approximately 18 fold | muscle strength, body weight, CMAP amplitude and performance on the rotor rod ([4]; mouse, in vivo): normal | CMAP amplitude ([4]; n=4): 4.6±0.92 mV and 6.7±1.24 mV and 7.6±1.12 mV | expression of TRPV1 (TRPV1): did not affect | walk time on rotating rod [5]: remained equivalent to non-treated controls | Body Weight (gram) ± SEM [6]: 32.62 ± 0.56 gram and 33.55 ± 0.51 gram and 38.39 ± 0.93 gram | loss of body mass after BoNT/A [6]: reduced the loss of body mass | recovery of body weight following BoNT/A [6]: significantly enhanced recovery of body weight | cessation of grooming behavior after BoNT/A [7]: reduced | FM1-43 labeling (Neuro 2a cells [8]): equivalent to control | protective effect of capsaicin on FM1-43 uptake (Neuro 2a cells [8]): did not occur | amplitude of endplate currents (EPCs) [9]: reduced this action of BoNT/A | endplate potentials (EPPs) in response to 70 Hz nerve stimulation [9]: did not fail | inhibitory effect of BoNT/A on mean EPC amplitude [9]: reduced the inhibitory effect of BoNT/A | force generation or amplitude of stimulus evoked endplate currents (EPC) [10]: no effect | mean nerve-evoked twitch tension ([10]; n=4): 500 ± 100 mg

Oc1cc2c(cc1O)CN(C(=S)NCCc1ccc(Cl)cc1)CCC2 [capsazepine]
toe spread 24 hours post-capsaicin [3]: unable to spread toes | EPC amplitude or time course [9]: no effect | amplitude of endplate currents (EPCs) [9]: equivalent to that observed after BoNT/A alone | inhibitory effect of BoNT/A on mean EPC amplitude [9]: the protective action of capsaicin was abolished
